Measurements from patent US20260078111A1, “CARBONIC ANHYDRASE ENZYME INHIBITORS AND METHODS OF USE THEREOF” (RUTGERS, THE STATE UNIVERSITY OF NEW JERSEY, priority 2022, published 2026).
Where two headings read alike, the source gives them in different places.

Tests used:
[1] = system: mast cell development from murine bone marrow cells; test: In vitro mast cell development culture assay (IL-3, flow cytometry); assay type: cell-based, mice; settings: for inhibition at 15 µM: read-out: POI (percent of inhibition based on MC numbers); for Percent Inhibition at 10 μm: in vitro mast cell cultures
Description: To further test the ability of 4-(3-hydroxy-1-(4-methoxybenzyl)-2-oxoindolin-3-yl)benzenesulfonamide to inhibit mast cell development, an established mast cell culture assay was employed (Henry, E. K., et al., J Exp Med, 2016. 213(9): p. 1663-73). As a positive control for mast cell development, bone marrow cells were isolated from the femur of mice and cultured in the presence of 10 ng/mL of IL-3 and vehicle (1:10, DMSO/RPMI complete media) for seven days and mast cells were identified by flow cytometric analysis as (c-Kit+ FceRIa+ CD49b− cells).
In vitro Mast Cell development: Briefly, 1×10^6 bone marrow-resident progenitor cells were isolated from the femur of mice and cultured in complete media supplemented with 10 ng/mL of rIL-3 for a period of […]. Mast cells were identified by their expression of the surface molecules FcεRIα and c-Kit via flow cytometric analysis. In addition to IL-3, cultures were treated with vehicle or increasing concentrations of Car enzyme inhibitors at the indicated concentrations.

recombinant human Car1 = recombinant human Car1 (Homo sapiens, UniProt P00915); test: Stopped-flow assay of Car1 enzyme inhibition (IC50); assay type: biochemical
recombinant human Car1, sequence (P00915 whole entry): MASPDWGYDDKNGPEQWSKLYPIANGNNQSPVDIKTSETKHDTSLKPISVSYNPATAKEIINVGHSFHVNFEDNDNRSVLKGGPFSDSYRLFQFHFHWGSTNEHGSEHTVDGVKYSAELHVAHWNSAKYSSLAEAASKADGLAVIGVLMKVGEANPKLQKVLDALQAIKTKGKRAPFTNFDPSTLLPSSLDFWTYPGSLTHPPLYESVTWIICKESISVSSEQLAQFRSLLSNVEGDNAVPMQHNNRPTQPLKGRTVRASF
Description: Stopped-flow: IC50 values were established using an SX20 stopped-flow spectrometer from […]. In one syringe of the SX20, recombinant human Car1 was kept at a concentration of 9 μM in a sodium phosphate buffer and inhibitors were added to this solution at 0 nM, 10 nM, 20 nM, 80 nM and 100 nM. In a second syringe, a saturated CO2 solution was mixed with 0.2 mM phenol red. This series of dilutions allow for the evaluation of how quickly Car1 can metabolize the CO2 in the absence of an inhibitor and for the determination of whether that process is inhibited as increasing concentrations of compounds are added.

[2] = Mus musculus, Mast cell, Table 3, at 15 uM

## NS(=O)(=O)c1ccc(C2(O)C(=O)N(Cc3ccc(N4CCOCC4)cc3)c3ccccc32)cc1 (stereo not drawn) [NEM-14A, 4-[3-hydroxy-1-[(4-morpholinophenyl)methyl]-2-oxo-indolin-3-yl]benzenesulfonamide]
[1]; 10 uM
  inhibition of mast cell numbers (POI) compared to MZ at 126 uM: comparable inhibition of mast cell numbers with the control, MZ, at 126 uM
[1]; 15 uM
  inhibition of mast cell numbers (POI) compared to MZ at 126 uM: significantly higher inhibition than MZ at 126 uM
[1]; [2]
  inhibition at 15 µM: 98%
Recombinant human Car1
  IC50: 34 nM

## COc1ccc(CN2C(=O)C(F)(c3ccc(S(N)(=O)=O)cc3)c3ccccc32)cc1 (stereo not drawn)
[1]
  Percent Inhibition at 10 μm: 99%

## NS(=O)(=O)c1ccc(C2(O)C(=O)N(Cc3ccc(-c4ccnc(C(F)(F)F)c4)cc3)c3ccccc32)cc1 (stereo not drawn) [NEM-45A, 4-[3-hydroxy-2-oxo-1-[[4-[2-(trifluoromethyl)-4-pyridyl]phenyl]methyl]indolin-3-yl]benzenesulfonamide]
[1]; Mus musculus, Mast cell
  inhibition at 15 µM: 100%

## NS(=O)(=O)c1ccc(C2(O)C(=O)N(c3cccc4cnccc34)c3ccccc32)cc1 (stereo not drawn) [NEM-38A, 4-[3-hydroxy-1-(5-isoquinolyl)-2-oxo-indolin-3-yl]benzenesulfonamide]
[1]; Mus musculus, Mast cell
  inhibition at 15 µM: 63%

## NS(=O)(=O)c1ccc(C2(O)C(=O)N(Cc3ccc(-n4ccnc4)cc3)c3ccccc32)cc1 (stereo not drawn) [NEM-25A, 4-[3-hydroxy-1-[(4-imidazol-1-ylphenyl)methyl]-2-oxo-indolin-3-yl]benzenesulfonamide]
[1]; Mus musculus, Mast cell
  inhibition at 15 µM: 87%

## CN1C(=O)C(O)(c2ccc(S(N)(=O)=O)cc2)c2ccccc21 (stereo not drawn)
[1]
  Percent Inhibition at 10 μm: 84%

## COc1ccc2c(N3C(=O)C(O)(c4ccc(S(N)(=O)=O)cc4)c4ccccc43)cccc2c1 (stereo not drawn) [NEM-15A, 4-[3-hydroxy-1-(6-methoxy-1-naphthyl)-2-oxo-indolin-3-yl]benzenesulfonamide]
[1]; 10 uM
  inhibition of mast cell numbers (POI) compared to MZ at 126 uM: significantly higher inhibition of mast cell numbers than MZ at 126 uM
[1]; 15 uM
  inhibition of mast cell numbers (POI) compared to MZ at 126 uM: significantly higher inhibition of mast cell numbers than MZ at 126 uM
[1]; [2]
  inhibition at 15 µM: 100%
Recombinant human Car1
  IC50: 35.3 nM

## CCN1C(=O)C(F)(c2ccc(S(N)(=O)=O)cc2)c2ccccc21 (stereo not drawn)
[1]
  Percent Inhibition at 10 μm: 99%

## NS(=O)(=O)c1ccc(C2(O)C(=O)N(c3cccc4cc(Cl)ccc34)c3ccccc32)cc1 (stereo not drawn) [NEM-35A, 4-[1-(6-chloro-1-naphthyl)-3-hydroxy-2-oxo-indolin-3-yl]benzenesulfonamide]
[1]; Mus musculus, Mast cell
  inhibition at 15 µM: 99%

## CN1C(=O)C(F)(c2ccc(S(N)(=O)=O)cc2)c2ccccc21 (stereo not drawn)
[1]
  Percent Inhibition at 10 μm: 100%

## COc1ccc(CN2C(=O)C(O)(c3ccc(S(N)(=O)=O)cc3)c3ccccc32)cc1 (stereo not drawn) [drawing 86]
[1]
  Percent Inhibition at 10 μm: 91%

## NS(=O)(=O)c1ccc(C2(O)C(=O)N(Cc3ccc(C4CCNCC4)cc3)c3ccccc32)cc1 (stereo not drawn) [NEM-21A, 4-[3-hydroxy-2-oxo-1-[[4-(4-piperidyl)phenyl]methyl]indolin-3-yl]benzenesulfonamide]
[1]; Mus musculus, Mast cell
  inhibition at 15 µM: 81%

## NS(=O)(=O)c1ccc(C2(O)C(=O)N(Cc3ccc(N4CCCCC4)cc3)c3ccccc32)cc1 (stereo not drawn) [NEM-19A, 4-[3-hydroxy-2-oxo-1-[[4-(1-piperidyl)phenyl]methyl]indolin-3-yl]benzenesulfonamide]
[1]; Mus musculus, Mast cell
  inhibition at 15 µM: 99%

## NS(=O)(=O)c1ccc(C2(O)C(=O)N(Cc3ccc(OC(F)F)cc3)c3ccccc32)cc1 (stereo not drawn) [NEM-4A, 4-[1-[[4-(difluoromethoxy)phenyl]methyl]-3-hydroxy-2-oxo-indolin-3-yl]benzenesulfonamide]
[1]; Mus musculus, Mast cell
  inhibition at 15 µM: 82%

## NS(=O)(=O)c1ccc(C2(O)C(=O)N(Cc3ccc4c(c3)OCO4)c3ccccc32)cc1 (stereo not drawn) [NEM-41A, 4-[1-(1,3-benzodioxol-5-ylmethyl)-3-hydroxy-2-oxo-indolin-3-yl]benzenesulfonamide]
[1]; Mus musculus, Mast cell
  inhibition at 15 µM: 64%

## NS(=O)(=O)c1ccc(C2(O)C(=O)Nc3ccccc32)cc1 (stereo not drawn)
[1]
  Percent Inhibition at 10 μm: 94%

## NS(=O)(=O)c1ccc(C2(O)C(=O)N(c3cccc4cc5c(cc34)OCO5)c3ccccc32)cc1 (stereo not drawn) [NEM-37A, 4-(1-benzo[f][1,3]benzodioxol-5-yl-3-hydroxy-2-oxo-indolin-3-yl)benzenesulfonamide]
[1]; [2]
  inhibition at 15 µM: 100%
Recombinant human Car1
  IC50: 5.3 nM

## NS(=O)(=O)c1ccc(C2(O)C(=O)N(Cc3ccc(N4CCC(F)(F)CC4)cc3)c3ccccc32)cc1 (stereo not drawn) [NEM-20A, 4-[1-[[4-(4,4-difluoro-1-piperidyl)phenyl]methyl]-3-hydroxy-2-oxo-indolin-3-yl]benzenesulfonamide]
[1]; Mus musculus, Mast cell
  inhibition at 15 µM: 100%

## NS(=O)(=O)c1ccc(C2(O)C(=O)N(c3cccc4cc(F)ccc34)c3ccccc32)cc1 (stereo not drawn) [NEM-34A, 4-[1-(6-fluoro-1-naphthyl)-3-hydroxy-2-oxo-indolin-3-yl]benzenesulfonamide]
[1]; Mus musculus, Mast cell
  inhibition at 15 µM: 99%

## NS(=O)(=O)c1ccc(C2(O)C(=O)N(Cc3ccc(N4CCCC4)cc3)c3ccccc32)cc1 (stereo not drawn) [NEM-24A, 4-[3-hydroxy-2-oxo-1-[(4-pyrrolidin-1-ylphenyl)methyl]indolin-3-yl]benzenesulfonamide]
[1]; [2]
  inhibition at 15 µM: 99%
Recombinant human Car1
  IC50: 44.3 nM

## NS(=O)(=O)c1ccc(C2(O)C(=O)N(Cc3ccc(-c4ccncc4)cc3)c3ccccc32)cc1 (stereo not drawn) [NEM-23A, 4-[3-hydroxy-2-oxo-1-[[4-(4-pyridyl)phenyl]methyl]indolin-3-yl]benzenesulfonamide]
[1]; 100 nM, titration, FIG. 3
  inhibition of mast cell numbers: inhibits mast cell numbers
[1]; 5 uM
  inhibition of mast cell numbers (POI) compared to MZ at 126 uM: comparable level than MZ at 126 uM
[1]; 10 uM
  inhibition of mast cell numbers (POI) compared to MZ at 126 uM: comparable level than MZ at 126 uM
[1]; 15 uM
  inhibition of mast cell numbers (POI) compared to MZ at 126 uM: comparable level than MZ at 126 uM
[1]; Mus musculus, Mast cell, 250 nM, titration, FIG. 3, read-out: inhibition of mast cell numbers
  inhibition at 0.25 µM: ~50%
[1]; [2]
  inhibition at 15 µM: 99%
Recombinant human Car1
  IC50: 77 nM

## NS(=O)(=O)c1ccc(C2(O)C(=O)N(c3cccc4cc(N5CCOCC5)ccc34)c3ccccc32)cc1 (stereo not drawn) [NEM-36A, 4-[3-hydroxy-1-(6-morpholino-1-naphthyl)-2-oxo-indolin-3-yl]benzenesulfonamide]
[1]; Mus musculus, Mast cell
  inhibition at 15 µM: 91%

## NS(=O)(=O)c1ccc(C2(O)C(=O)N(Cc3cc[n+]([O-])cc3)c3ccccc32)cc1 (stereo not drawn) [NEM-10A, 4-[3-hydroxy-1-[(1-oxidopyridin-1-ium-4-yl)methyl]-2-oxo-indolin-3-yl]benzenesulfonamide]
[1]; [2]
  inhibition at 15 µM: 11%
Recombinant human Car1
  IC50: 33.8 nM

## NS(=O)(=O)c1ccc(C2(O)C(=O)N(Cc3ccc4ncccc4c3)c3ccccc32)cc1 (stereo not drawn) [NEM-26A, 4-[3-hydroxy-2-oxo-1-(6-quinolylmethyl)indolin-3-yl]benzenesulfonamide]
[1]; Mus musculus, Mast cell
  inhibition at 15 µM: 82%

## CCN1C(=O)C(O)(c2ccc(S(N)(=O)=O)cc2)c2ccccc21 (stereo not drawn)
[1]
  Percent Inhibition at 10 μm: 99%

## NS(=O)(=O)c1ccc(C2(O)C(=O)N(Cc3ccc(F)c(F)c3)c3ccccc32)cc1 (stereo not drawn) [NEM-9A, 4-[1-[(3,4-difluorophenyl)methyl]-3-hydroxy-2-oxo-indolin-3-yl]benzenesulfonamide]
[1]; [2]
  inhibition at 15 µM: 18%
Recombinant human Car1
  IC50: 51.3 nM

## NS(=O)(=O)c1ccc(C2(F)C(=O)N(Cc3ccc(F)cc3)c3ccccc32)cc1 (stereo not drawn)
[1]
  Percent Inhibition at 10 μm: 98%

## NS(=O)(=O)c1ccc(C2(O)C(=O)N(CC3CCOCC3)c3ccccc32)cc1 (stereo not drawn) [NEM-12A, 4-[3-hydroxy-2-oxo-1-(tetrahydropyran-4-ylmethyl)indolin-3-yl]benzenesulfonamide]
[1]; [2]
  inhibition at 15 µM: 6%
Recombinant human Car1
  IC50: 62.5 nM

## NS(=O)(=O)c1ccc(C2(O)C(=O)N(Cc3ccc(F)cc3)c3ccccc32)cc1 (stereo not drawn)
[1]
  Percent Inhibition at 10 μm: 98%

## CC(C)(C)OC(=O)N1CCC(c2ccc(CN3C(=O)C(O)(c4ccc(S(N)(=O)=O)cc4)c4ccccc43)cc2)CC1 (stereo not drawn) [NEM-30A, tert-butyl 4-[4-[[3-hydroxy-2-oxo-3-(4-sulfamoylphenyl)indolin-1-yl]methyl]phenyl]piperidine-1-carboxylate]
[1]; Mus musculus, Mast cell
  inhibition at 15 µM: 100%

## NS(=O)(=O)c1ccc(C2(O)C(=O)N(Cc3ccc(N4CCNCC4)cc3)c3ccccc32)cc1 (stereo not drawn) [NEM-22A, 4-[3-hydroxy-2-oxo-1-[(4-piperazin-1-ylphenyl)methyl]indolin-3-yl]benzenesulfonamide]
[1]; Mus musculus, Mast cell
  inhibition at 15 µM: 53%

## NS(=O)(=O)c1ccc(C2(O)C(=O)N(c3ccc(Br)cc3)c3ccccc32)cc1 (stereo not drawn) [NEM-27A, 4-[1-(4-bromophenyl)-3-hydroxy-2-oxo-indolin-3-yl]benzenesulfonamide]
[1]; Mus musculus, Mast cell
  inhibition at 15 µM: 94%

## COc1ccc(N2C(=O)C(O)(c3ccc(S(N)(=O)=O)cc3)c3ccccc32)cc1 (stereo not drawn) [NEM-13A, 4-[3-hydroxy-1-(4-methoxyphenyl)-2-oxo-indolin-3-yl]benzenesulfonamide]
[1]; Mus musculus, Mast cell
  inhibition at 15 µM: 87%

## CC(C)(C)OC(=O)N1CCN(c2ccc(CN3C(=O)C(O)(c4ccc(S(N)(=O)=O)cc4)c4ccccc43)cc2)CC1 (stereo not drawn) [NEM-32A, tert-butyl 4-[4-[[3-hydroxy-2-oxo-3-(4-sulfamoylphenyl)indolin-1-yl]methyl]phenyl]piperazine-1-carboxylate]
[1]; Mus musculus, Mast cell
  inhibition at 15 µM: 100%
